Reference: US10398696B2, “Combinations for treatment of cancer” (Stichting Het Nederlands Kanker Instituut-Antoni van …, priority 2013, dated 2019)

Key:
H358 lung cells = assay: long-term proliferation assay, H358; assay type: cell-based; conditions: MEK inhibitor selumetinib (FIG. 2)
Description: FIG. 1 Suppression of ERBB3 by shRNA enhances response to MEK inhibitor. H358 KRAS mutant (Non-Small Cell Lung Cancer (NSCLC) cells were infected with two independent shRNAs targeting ERBB3 as indicated. pLKO vector serves as a control vector. After puromycin selection, cells were cultured in the absence or presence of 1 μM selumetinib for 20 days.
FIG. 2 […] lung cancer cells were cultured in increasing concentration of MEK inhibitor selumetinib alone, EGFR inhibitor gefitinib alone, ERBB2 inhibitor CP724714 alone, EGFR/ERBB2 dual inhibitor afatinib, EGFR/ERBB2 dual inhibitor dacomitinib alone or their combinations as indicated. Cells were harvested, fixed and stained after 21 days.
Recently the use of a kinome-centered synthetic lethal screening approach, which enables the identification of kinases whose inhibition is strongly synergistic with a cancer drug of interest has been described (Prahallad et al., 2012). […] Each of these knockdown vectors has a unique DNA-based molecular bar code identifier, which allows quantification of the relative abundance of each of the shRNA vectors in the presence and absence of drug (Prahallad et al., 2012). […] After 21 days, genomic DNA was isolated from both cells of the treated and untreated populations and the bar codes contained in the shRNA cassettes were recovered by PCR and their abundance determined by deep sequencing. […]

SW837 colon cells = assay: long-term proliferation assay, SW837; assay type: cell-based; conditions: MEK inhibitor selumetinib (FIG. 3)

COc1cc2ncnc(Nc3ccc(F)c(Cl)c3)c2cc1NC(=O)/C=C/CN1CCCCC1 [dacometinib]
synergy with MEK inhibition in long-term proliferation assays (H358 lung cells): strong synergy | synergy with MEK inhibition in long-term proliferation assays (SW837 colon cells): strong synergy
